Experimental data reported in publication PMC3816702, “The Three Catecholics Benserazide, Catechol and Pyrogallol are GPR35 Agonists” (Pharmaceuticals, 2013).

What was measured:
GPR35 [1] = target: T1, GPR35 (Homo sapiens, UniProt Q9HC97); assay: Tango β-arrestin translocation gene reporter assay in U2OS-GPR35-bla cells; type: cell-based; parameters: host or cells: U2OS (Tango U2OS-GPR35-bla); conditions: for Potency EC50, Tango / EC50: β-arrestin translocation, tested up to 1mM, mean ± S.D.; for Potency EC50, Tango: n = 4; for Efficacy Tango (%zaprinast): normalized to maximal response of zaprinast (100%); for EC50: n = 4, read-out: Potency EC50, Tango
Experimental: (§1) Tango assays were performed in engineered U2OS-GPR35-bla cell line. This cell line permits an endpoint measurement of the activity of agonists specific to the GPR35 activation-induced β-arrestin translocation. Specifically, 10000 U2OS-GPR35-bla cells per well were seeded in 384-well, black-wall, clear bottom assay plates with low fluorescence background (Corning). After overnight culture, the cells were stimulated with ligands for 5 h at 37 °C under 5% CO2, and then loaded with the cell permeable LiveBLAzer™ fluorescence resonance energy transfer (FRET) B/G substrate. After 2 h incubation the coumarin to fluorescein ratio was measured using Victor 4 plate reader (PerkinElmer, Waltham, MA, USA).
Target sequence in this assay (Q9HC97 whole entry, species assumed): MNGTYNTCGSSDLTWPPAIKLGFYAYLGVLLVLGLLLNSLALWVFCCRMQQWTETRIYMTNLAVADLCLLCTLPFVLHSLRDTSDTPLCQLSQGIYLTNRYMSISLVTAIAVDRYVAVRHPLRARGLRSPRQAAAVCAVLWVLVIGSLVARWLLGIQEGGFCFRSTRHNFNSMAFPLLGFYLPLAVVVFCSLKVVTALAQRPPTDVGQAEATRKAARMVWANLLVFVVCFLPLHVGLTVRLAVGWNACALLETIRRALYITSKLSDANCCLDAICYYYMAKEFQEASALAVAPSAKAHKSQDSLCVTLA

GPR35 [2] = target: T1, GPR35; assay: DMR agonist assay in native HT-29 cells; type: cell-based; parameters: label-free DMR assays in both native HT-29 and engineered U2OS-GPR35-bla cells; host or cells: HT-29; conditions: for Potency EC50, DMR / EC50: mean ± S.D.; for Potency EC50, DMR: n = 4; for Efficacy DMR: maximal DMR amplitude; for EC50: n = 4, read-out: Potency EC50, DMR
Experimental: (§2) DMR assays were performed using an Epic® system (Corning Inc., Corning, NY, USA). This system records a ligand-induced dynamic mass redistribution (DMR) signal of live cells as a shift in resonant wavelength (in picometer, pm) of a resonant waveguide grating biosensor. The DMR signal obtained is a real-time kinetic response that provides a holistic view of ligand-receptor interaction(s) and its functional consequence in the cells. For HT-29 cells 30,000 cells per well were seeded into 384well Epic® biosensor plates (Corning) and cultured overnight. For U2OS and U2OS-GPR35-bla cells 18,000 cells per well were seeded and cultured overnight. These cells were then washed twice using a plate washer, maintained with Hank’s balanced salt solution (1 × HBSS) and further incubated inside the Epic® system for 1 h. DMR agonist profiling proceeds with a 2-min baseline, followed by compound addition and monitoring the compound-induced responses for about 1 h. […] All DMR signals were background corrected.
Target sequence in this assay (Q9HC97 whole entry): as the sequence (Q9HC97 whole entry, species assumed) above

GPR35 [3] = target: T1, GPR35; assay: ML-145 inhibition of Tango signals of agonists at a fixed dose in U2OS-GPR35-bla cells; type: cell-based; parameters: host or cells: U2OS (Tango U2OS-GPR35-bla); conditions: label = agonist at fixed dose: 10 μM zaprinast, 10 μM YE210, 50 μM gallic acid, 10 μM pyrogallol, 32 μM benserazide, 250 μM 3-methoxycatechol
Experimental: as §1
Target sequence in this assay (Q9HC97 whole entry, species assumed): as above

GPR35 [4] = target: T1, GPR35; assay: DMR antagonist assay in HT-29 cells (preincubation with antagonist, then agonist at fixed dose); type: cell-based; parameters: label-free DMR assays in both native HT-29 and engineered U2OS-GPR35-bla cells; host or cells: HT-29; conditions: 500 μM catechol; for Blockage of the agonist-induced DMR by ML-145: label = agonist at fixed dose: 64 μM propyl gallate, 200 or 100 μM syringic acid, 16 μM benserazide, 20 μM (+)-taxifolin, 100 μM fenoldopam; for Effect of antagonist on the catechol DMR: label = antagonist
Experimental: as §2
Target sequence in this assay (Q9HC97 whole entry): as the sequence (Q9HC97 whole entry, species assumed) above

parental U2OS cells = assay: DMR agonist assay in parental U2OS cells; type: cell-based; conditions: parental U2OS cells without GPR35
Experimental: as §2

GPR35 [5] = target: T1, GPR35; assay: DMR agonist assay in engineered U2OS-GPR35-bla cells; type: cell-based; parameters: host or cells: U2OS (Tango U2OS-GPR35-bla); conditions: DMR amplitude at 8min poststimulation; n = 4
Experimental: as §2
Target sequence in this assay (Q9HC97 whole entry, species assumed): as above

GPR35 [6] = target: T1, GPR35; conditions: previously found; cited from earlier work
Target sequence in this assay (Q9HC97 whole entry): as the sequence (Q9HC97 whole entry, species assumed) above

Compound	Potency EC50, Tango (GPR35 [1])	Efficacy Tango (%zaprinast) (GPR35 [1])	Blockage of the agonist Tango signal by ML-145 (GPR35 [3])	Efficacy DMR (GPR35 [2]) [pm]	EC50 (GPR35 [2]) [µM]	Blockage of the agonist-induced DMR by ML-145 (GPR35 [4])	also measured
COc1ccc(C=CC(=O)O)cc1OC [3,4-Dimethoxycinnamic acid, 3,4-dimethoxycinnamic acid]	inactive	–	–	–	–	–	Potency EC50, DMR (GPR35 [2]): inactive
COc1cccc(O)c1O [3-Methoxycatechol, 3-methoxycatechol]	–	41 ± 3	dose-dependently blocked	219	147 ± 15	–	EC50 (GPR35 [1]): 80.7 ± 6.3 µM
O=C1c2c(O)cc(O)cc2O[C@H](c2ccc(O)c(O)c2)[C@H]1O [(+)-Taxifolin, (+)-taxifolin]	weak	>8	–	170	6.6 ± 0.5	completely blocked	–
Oc1cc(O)c2c(c1)O[C@@H](c1ccc(O)c(O)c1)[C@H](O)C2 [(−)-Catechin, (−)-catechin]	inactive	–	–	–	–	–	Potency EC50, DMR (GPR35 [2]): inactive
NC(CO)C(=O)NNCc1ccc(O)c(O)c1O (stereo not drawn) [Benserazide]	–	48 ± 4	dose-dependently blocked	296	11 ± 0.9	partially blocked	DMR activity in the parental U2OS cells (parental U2OS cells): inactive; EC50 (GPR35 [5]): 1 ± 0.13 µM; EC50 (GPR35 [1]): 7.5 ± 0.6 µM
Oc1ccccc1O [Catechol, catechol]	inactive	0	–	207	319 ± 27	completely blocked	–
Oc1ccc(C2CNCCc3c2cc(O)c(O)c3Cl)cc1 (stereo not drawn) [Fenoldopam, fenoldopam, reference compound]	inactive	0	–	268	206 ± 19	completely blocked	–
O=C(O)c1cc(O)c(O)c(O)c1 [Gallic acid, gallic acid, reference compound]	–	77 ± 5	dose-dependently blocked	–	1.16 ± 0.09	–	EC50 (GPR35 [1]): 12.6 ± 1 µM
CC(C)NCC(O)COc1ccc(CCOCC2CC2)cc1 (stereo not drawn) [betaxolol, reference compound]	–	–	–	–	–	–	Effect of antagonist on the catechol DMR (GPR35 [4]): neither the β-adrenergic receptor antagonist betaxolol nor α2-adrenergic receptor antagonist yohimbine had any obvious effects
O=C(O)/C=C/c1ccc(O)c(O)c1 [caffeic acid]	–	–	–	–	–	–	GPR35 agonist activity (DMR in HT-29), in words (GPR35 [6]): weak partial agonist
COC(=O)[C@@H]1[C@H]2C[C@H]3c4[nH]c5ccccc5c4CCN3C[C@@H]2CC[C@@H]1O [yohimbine, reference compound]	–	–	–	–	–	–	Effect of antagonist on the catechol DMR (GPR35 [4]): neither the β-adrenergic receptor antagonist betaxolol nor α2-adrenergic receptor antagonist yohimbine had any obvious effects

Continued, in another order:

Potency EC50, Tango (GPR35 [1])	Efficacy Tango (%zaprinast) (GPR35 [1])	Blockage of the agonist Tango signal by ML-145 (GPR35 [3])	Efficacy DMR (GPR35 [2]) [pm]	EC50 (GPR35 [2]) [µM]	Blockage of the agonist-induced DMR by ML-145 (GPR35 [4])	Compound	also measured
weak	>8	–	210	20.2 ± 1.9	completely blocked	CCCOC(=O)c1cc(O)c(O)c(O)c1 [Propyl gallate, propyl gallate]	–
–	113 ± 5	dose-dependently blocked	210	1.3 ± 0.1	–	Oc1cccc(O)c1O [Pyrogallol, pyrogallol]	EC50 (GPR35 [1]): 4.5 ± 0.4 µM
weak	>10	–	151	147 ± 23	completely blocked	COc1cc(C(=O)O)cc(OC)c1O [Syringic acid, syringic acid]	–
–	–	dose-dependently blocked	–	–	–	Cc1c(C(=O)O)sc2c(Br)csc12 [YE210]	–
–	–	dose-dependently blocked	–	–	–	CCCOc1ccccc1-c1nc2nn[nH]c2c(=O)[nH]1 [zaprinast, Zaprinast]	DMR activity in the parental U2OS cells (parental U2OS cells): inactive
